{"source": "patent US8889708B2", "about": "(Boehringer Ingelheim International GmbH, priority 2013, dated 2014)", "key": {"recombinant human DPPI": {"biological_target": "recombinant human DPPI (Homo sapiens (Human), UniProt P53634)", "sequence (P53634 231-394)": "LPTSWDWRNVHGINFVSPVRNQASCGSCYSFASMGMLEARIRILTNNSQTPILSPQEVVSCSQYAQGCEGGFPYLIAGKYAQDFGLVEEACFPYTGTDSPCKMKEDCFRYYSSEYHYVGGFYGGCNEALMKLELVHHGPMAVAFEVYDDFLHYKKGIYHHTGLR", "sequence (P53634 395-463)": "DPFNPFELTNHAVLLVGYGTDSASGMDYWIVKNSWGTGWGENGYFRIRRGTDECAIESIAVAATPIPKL", "sequence (P53634 25-134)": "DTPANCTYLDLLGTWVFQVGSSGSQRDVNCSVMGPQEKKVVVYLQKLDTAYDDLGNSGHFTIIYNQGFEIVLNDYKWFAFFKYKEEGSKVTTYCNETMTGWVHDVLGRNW", "assay": "Inhibition of Human DPPI (Cathepsin C)", "type": "biochemical", "conditions": "substrate Gly-Arg-AMC, 30 min room temperature", "text": "Inhibition of Human DPPI (Cathepsin C)\nMaterials: Microtiterplates (Optiplate-384 F) were purchased from PerkinElmer (Prod. No. 6007270). The substrate Gly-Arg-AMC was from Biotrend (Prod.-No. 808756 Custom peptide). Bovine serum albumin (BSA; Prod. No. A3059) and Dithiothreitol (DTT; Prod. No D0632) were from Sigma. TagZyme buffer was from Riedel-de-Haen (Prod.-No. 04269), NaCl was from Merck (Prod.-No. 1.06404.1000) and morpholinoethane sulfonic acid (MES), was from Serva (Prod.-No. 29834). The DPP1 inhibitor Gly-Phe-DMK was purchased from MP Biomedicals (Prod.-No. 03DK00625). The recombinant human DPPI was purchased from Prozymex. All other materials were of highest grade commercially available.\nThe following buffers were used: MES buffer: 25 mM MES, 50 mM NaCl, 5 mM DTT, adjusted to pH 6.0, containing 0.1% BSA; TAGZyme Buffer: 20 mM NaH2PO4, 150 mM NaCl adjusted to pH 6.0 with HCl\nThe recombinant human DPPI was diluted in TAGZyme buffer to 1 U/ml (38.1 μg/ml, respectively), and then activated by mixing in a 1:2 ratio with a Cysteamine aqueous solution (2 mM) and incubating for 5 min at room temperature.\nFive uL test compound (final concentration 0.1 nM to 100 μM) in aqua bidest (containing 4% DMSO, final DMSO concentration 1%) were mixed with 10 μL of DPPI in MES buffer (final concentration 0.0125 ng/μL) and incubated for 10 min. Then, 5 μL of substrate in MES buffer (final concentration 50 μM) were added. The microtiter plates were then incubated at room temperature for 30 min. Then, the reaction was stopped by adding 10 μL of Gly-Phe-DMK in MES-buffer (final concentration 1 μM). The fluorescence in the wells was determined using a Molecular Devices SpectraMax M5 Fluorescence Reader (Ex 360 nm, Em 460 nm) or an Envision Fluorescence Reader (Ex 355 nm, Em 460 nm).\nEach assay microtiter plate contained wells with vehicle controls (1% DMSO in bidest+0.075% BSA) as reference for non-inhibited enzyme activity (100% Ctl; high values) and wells with inhibitor (Gly-Phe-DMK, in bidest+1% DMSO+0.075% BSA, final concentration 1 μM) as controls for background fluorescence (0% Ctl; low values).\nThe analysis of the data was performed by calculating the percentage of fluorescence in the presence of test compound in comparison to the fluorescence of the vehicle control after subtracting the background fluorescence using the following formula: (RFU(sample)−RFU(background))*100/(RFU(control)−RFU(background))\nData from these calculations were used to generate IC50 values for inhibition of DPPI, respectively."}, "[1]": {"tested_on": "Neutrophil elastase activity in U937 cells", "assay": "Neutrophil elastase activity in U937 cytosolic lysate after incubation with test compound", "type": "cell-based", "conditions": "Homo sapiens, U-937, U937 cells incubated 48 hours with compound, read-out: Reduction of NE-activity in U937 cells IC50", "description": "Determination of Neutrophil Elastase Activity in U937 Cytosolic Lysate Preparation after Incubation with Test Compound\nOptiplate 384F were purchased from PerkinElmer (Prod. No. #6007270). 24well Nunclon cell culture plates (No. 142475) and 96well plates (No. 267245) were from Nunc. Dimethylsulfoxid (DMSO) was from Sigma (Prod. No. D8418). Nonidet-P40 (NP40) was from USBiological (Prod. No. N3500)\nSubstrate, specific for Neutrophil elastase, was from Bachem (MeOSuc-Ala-Ala-Pro-Val-AMC; Prod. No. I-1270).\nHuman neutrophil elastase was from Calbiochem (Prod. No. 324681)\nTris-buffer (100 mM Tris; 1M NaCL; pH 7.5)\nTris-buffer+HSA 0.1%; Human Serum Albumin from Calbiochem (Cat#. 126658)\nSerine-protease buffer (20 mM Tris; 100 mM NaCL; pH 7.5)+0.1% HSA\nSerine protease lysis buffer: 20 mM Tris-HCL; 100 mM NaCl pH 7.5; +0.2% Nonidet-P40;\nPBS: phosphate buffered saline, without Ca and Mg, from Gibco\nU937 from ECACC (Cat. No. 85011440) cultured in suspension at 37° C. and 5% CO2.\nCell density: 0.2-1 Mio. Cells/ml.\nMedium: RPMI1640 GlutaMAX (No. 61870) with 10% FCS from Gibco\nCell Seeding and Treatment:\nCompounds in 100% DMSO were diluted in Medium (—FCS) with 10% DMSO and further diluted according to the experiment planned.\n20 μl of the compound solution was transferred in the respective wells of the 24 well plate and diluted with 2 ml cell suspension/well containing […] (final concentration of DMSO=0.1%). Compound dilution factor=100\nCompounds (up to 7 concentrations) were tested in triplicates with 3 wells for the DMSO 0.1% control, incubatet for 48 hours without medium change at 37° C., 5% CO2 and 95% relative humidity.\nCell Harvesting and Cell Lysate:\nTransfer the cell suspension in 2.2 ml Eppendorf cups. Separate cells from medium by centrifugation (400×g; 5 min; RT); discard the supernatant. Resuspend in 1 ml PBS; centrifugation (400×g; 5 min; RT); wash cells twice with PBS. Add 100 μl Serin lysis buffer (ice cold) to the cell pellet; resuspend the pellet and store on ice for 15 minutes. Remove debris by centrifugation at 15000×g for 10 min at 4° C. Transfer 80-100 μl lysate supernatant in 96well plate and store immediately at −80° C.\nNeutrophil Elastase Activity Assay:\nFrozen lysates were thawn at 37° C. for 10 minutes and stored on ice. Protein content was determined with Bradford protein assay. Lysates were diluted to 0.2-0.5 mg/ml protein in serine protease buffer+HSA.\nStandard: NE ([…] stocksolution in Tris-buffer; stored at −80° C.) was diluted in Tris-buffer+HSA to 750 ng/ml, and further serially diluted 1:2 for the standard curve.\nBuffer, blank, standard and lysate samples were transferred into 384 well plate\nBlank: 5 μl Tris-buffer+10 μl Tris-buffer+HSA+5 μl Substrate\nStandard: 5 μl Tris-buffer+10 μl NE (diff.conc.)+5 μl Substrate\nLysate: 5 μl Tris-buffer+10 μl Lysat+5 μl Substrate\nThe increase in fluorescence (Ex360 nm/Em 460 nm) is determined over 30 minutes with a Molecular Device Spectramax M5 Fluorescence Reader. Kinetic Reduction (Vmax units/sec); 4 vmax points. The amount of neutrophil elastase (ng/ml) is calculated using the standard curve and the Spectramax software. The result is interpolated to ng/mg lysate protein using excel formula functions. Percent inhibition in the compound-treated lysate samples is calculated relative to the DMSO-treated control-sample (100−(compound-sample*100)/control-sample)\nIC50 is calculated using Graphpad Prism; nonlinear fitting (log(inhibitor) vs. response—Variable slope)."}}, "data": [{"smiles": "CN1C(=O)Cc2ccc(-c3ccc(C[C@@H](C#N)NC(=O)C45CCC(CC4)CN5)cc3)cc21", "note": "[Example 2]", "values": [{"measurement": "IC50", "setting": "recombinant human DPPI", "value": 17.1, "unit": "nM"}, {"measurement": "IC50", "setting": "[1]", "value": 27, "unit": "nM"}]}, {"smiles": "CN1Cc2cc(-c3ccc(C[C@@H](C#N)NC(=O)C45CCC(CC4)CN5)cc3)ccc2C1=O", "note": "[Example 4]", "values": [{"measurement": "IC50", "setting": "recombinant human DPPI", "value": 50.1, "unit": "nM"}, {"measurement": "IC50", "setting": "[1]", "value": 86, "unit": "nM"}]}, {"smiles": "CS(=O)(=O)c1ccc(-c2ccc(C[C@@H](C#N)NC(=O)C34CCC(CC3)CN4)c(F)c2)cc1", "note": "[Example 21, N-[(1S)-1-cyano-2-[2-fluoro-4-(4-methanesulfonylphenyl)phenyl]ethyl]-2-azabicyclo[2.2.2]octane-1-carboxamide]", "values": [{"measurement": "IC50", "setting": "recombinant human DPPI", "value": 17, "unit": "nM"}, {"measurement": "IC50", "setting": "[1]", "value": 48, "unit": "nM"}]}, {"smiles": "N#C[C@H](Cc1ccc(-c2ccc3c(c2)CCNC3=O)cc1F)NC(=O)C12CCC(CC1)CN2", "note": "[Example 22]", "values": [{"measurement": "IC50", "setting": "recombinant human DPPI", "value": 6.8, "unit": "nM"}, {"measurement": "IC50", "setting": "[1]", "value": 7, "unit": "nM"}]}, {"smiles": "N#C[C@H](Cc1ccc(-c2ccc3c(c2)NC(=O)C3)cc1F)NC(=O)C12CCC(CC1)CN2", "note": "[Example 23]", "values": [{"measurement": "IC50", "setting": "recombinant human DPPI", "value": 6.6, "unit": "nM"}, {"measurement": "IC50", "setting": "[1]", "value": 33, "unit": "nM"}]}, {"smiles": "COCCN1C(=O)Cc2ccc(-c3ccc(C[C@@H](C#N)NC(=O)C45CCC(CC4)CN5)c(F)c3)cc21", "note": "[Example 26]", "values": [{"measurement": "IC50", "setting": "recombinant human DPPI", "value": 4.3, "unit": "nM"}, {"measurement": "IC50", "setting": "[1]", "value": 13, "unit": "nM"}]}, {"smiles": "CC1(C)OC(=O)c2ccc(-c3ccc(C[C@@H](C#N)NC(=O)C45CCC(CC4)CN5)c(F)c3)cc21", "note": "[Example 27]", "values": [{"measurement": "IC50", "setting": "recombinant human DPPI", "value": 2.2, "unit": "nM"}, {"measurement": "IC50", "setting": "[1]", "value": 7, "unit": "nM"}]}, {"smiles": "CN1C(=O)Cc2ccc(-c3ccc(C[C@@H](C#N)NC(=O)C45CCC(CC4)CN5)c(F)c3)cc21", "note": "[Example 28]", "values": [{"measurement": "IC50", "setting": "recombinant human DPPI", "value": 4.9, "unit": "nM"}, {"measurement": "IC50", "setting": "[1]", "value": 13, "unit": "nM"}]}, {"smiles": "N#C[C@H](Cc1ccc(-c2csc(C(N)=O)c2)cc1F)NC(=O)C12CCC(CC1)CN2", "note": "[Example 31]", "values": [{"measurement": "IC50", "setting": "recombinant human DPPI", "value": 4.3, "unit": "nM"}, {"measurement": "IC50", "setting": "[1]", "value": 73, "unit": "nM"}]}]}
